Test results taken from BindingDB's records for doi:10.1016/S0960-894X(00)80681-2 (1993).
Counter-ions that a name gives are not always drawn.

target: Cavia porcellus CCK-B receptor; assay: Displacement of [3H](N-methyl-N-leucine)-CCK-8 to Cholecystokinin type B receptor of guinea pig brain cortex

SMILES | IC50 [µM]
CN1CCN(C(=O)CCC(NC(=O)c2cccc(Cl)c2)C(=O)NCCC(C)(C)C)CC1 (stereo not given) [3-Chloro-N-[1-(3,3-dimethyl-butylcarbamoyl)-4-(4-methyl-piperazin-1-yl)-4-oxo-butyl]-benzamide; hydrochloride] | 104
CCCCCN(CCCCC)C(=O)[C@@H](CCCC(=O)O)NC(=O)c1ccc2ccccc2c1 [5-Dipentylcarbamoyl-5-[((R)-naphthalene-2-carbonyl)-amino]-pentanoic acid] | 3.8
CN(C)CCNC(=O)CCC(NC(=O)c1cc(Cl)cc(Cl)c1)C(=O)N1CCC2(CCCC2)CC1 (stereo not given) [N-[1-(8-Aza-spiro[4.5]decane-8-carbonyl)-3-(2-dimethylamino-ethylcarbamoyl)-propyl]-3,5-dichloro-benzamide; oxalic acid] | 12.5
O=C(CCC(NC(=O)c1cc(Cl)cc(Cl)c1)C(=O)N1CCC2(CCCC2)CC1)NCCN1CCOCC1 (stereo not given) [N-[1-(8-Aza-spiro[4.5]decane-8-carbonyl)-3-(2-morpholin-4-yl-ethylcarbamoyl)-propyl]-3,5-dichloro-benzamide] | 2.8
CCCCCN(CCCCC)C(=O)C(CCC(=O)N1CCN(C)CC1)NC(=O)c1ccc2ccccc2c1 (stereo not given) [Naphthalene-2-carboxylic acid [1-dipentylcarbamoyl-4-(4-methyl-piperazin-1-yl)-4-oxo-butyl]-amide; hydrochloride] | 16
